Laboratory results: publication PMC10946732
Like-named read-outs stand apart in the source and are kept apart here.

Assays:
[1] = Two-component stapling: SNAr of two Cys thiolates (C-S bonds) on para-C-F of 5,10,15,20-tetrakis(pentafluorophenyl)porphyrin (2), 1 equiv; Cs2CO3 8 equiv, TCEP 4 equiv, N2; settings: the molecule shown is the open-chain precursor, DMSO (dry), 3.3 mM, 25.0 °C, 2.0 h
[2] = the molecule shown is the open-chain precursor; 42-membered ring

CC[C@H](C)[C@H](NC(=O)[C@H](CCCCN)NC(=O)CNC(=O)[C@H](CC(C)C)NC(=O)[C@H](CC(C)C)NC(=O)[C@H](Cc1ccc(O)cc1)NC(=O)CNC(=O)[C@H](C)N)C(=O)N[C@@H](CC(N)=O)C(=O)N[C@@H](CC(C)C)C(=O)N[C@@H](CCCCN)C(=O)N[C@@H](C)C(=O)N[C@@H](CSc1c(F)c(F)c(-c2c3nc(c(-c4c(F)c(F)c(F)c(F)c4F)c4ccc([nH]4)c(-c4c(F)c(F)c(F)c(F)c4F)c4nc(c(-c5c(F)c(F)c(F)c(F)c5F)c5ccc2[nH]5)C=C4)C=C3)c(F)c1F)C(=O)N[C@@H](C)C(=O)N[C@@H](C)C(=O)N[C@@H](CC(C)C)C(=O)N[C@@H](C)C(=O)N[C@@H](CCCCN)C(=O)N[C@@H](CCCCN)C(=O)N[C@@H](CS)C(=O)N[C@@H](CC(C)C)C(N)=O
ring closure, conversion by HPLC ([1]; 39-membered ring): 72%

C[C@H](N)C(=O)N[C@@H](CSc1c(F)c(F)c(-c2c3nc(c(-c4c(F)c(F)c(F)c(F)c4F)c4ccc([nH]4)c(-c4c(F)c(F)c(F)c(F)c4F)c4nc(c(-c5c(F)c(F)c(F)c(F)c5F)c5ccc2[nH]5)C=C4)C=C3)c(F)c1F)C(=O)N[C@@H](C)C(=O)N[C@@H](CS)C(=O)NCC(N)=O [H-Ala-Cys-Ala-Cys-Gly-NH2]
ring closure, conversion by HPLC ([1]; 24-membered ring): 6%

C[C@H](N)C(=O)N[C@@H](CSc1c(F)c(F)c(-c2c3nc(c(-c4c(F)c(F)c(F)c(F)c4F)c4ccc([nH]4)c(-c4c(F)c(F)c(F)c(F)c4F)c4nc(c(-c5c(F)c(F)c(F)c(F)c5F)c5ccc2[nH]5)C=C4)C=C3)c(F)c1F)C(=O)N[C@@H](C)C(=O)N[C@H](C(=O)NCC(=O)N[C@@H](CO)C(=O)N[C@H](C(=O)N[C@@H](CCC(N)=O)C(=O)N[C@@H](Cc1c[nH]cn1)C(=O)N[C@@H](CCC(N)=O)C(=O)N[C@@H](C)C(=O)N[C@@H](CS)C(=O)NCC(N)=O)[C@@H](C)O)[C@@H](C)O [H-Ala-Cys-Ala-Thr-Gly-Ser-Thr-Gln-His-Gln-Ala-Cys-Gly-NH2]
ring closure, conversion by HPLC ([1]; 48-membered ring): 35%

C[C@H](N)C(=O)N[C@@H](CSc1c(F)c(F)c(-c2c3nc(c(-c4c(F)c(F)c(F)c(F)c4F)c4ccc([nH]4)c(-c4c(F)c(F)c(F)c(F)c4F)c4nc(c(-c5c(F)c(F)c(F)c(F)c5F)c5ccc2[nH]5)C=C4)C=C3)c(F)c1F)C(=O)N[C@@H](C)C(=O)N[C@H](C(=O)NCC(=O)N[C@@H](CO)C(=O)N[C@H](C(=O)N[C@@H](CCC(N)=O)C(=O)N[C@@H](Cc1c[nH]cn1)C(=O)N[C@@H](CCC(N)=O)C(=O)N[C@@H](CS)C(=O)NCC(N)=O)[C@@H](C)O)[C@@H](C)O [H-Ala-Cys-Ala-Thr-Gly-Ser-Thr-Gln-His-Gln-Cys-Gly-NH2]
ring closure, conversion by HPLC ([1]; 45-membered ring): 36%

C[C@H](N)C(=O)N[C@@H](CSc1c(F)c(F)c(-c2c3nc(c(-c4c(F)c(F)c(F)c(F)c4F)c4ccc([nH]4)c(-c4c(F)c(F)c(F)c(F)c4F)c4nc(c(-c5c(F)c(F)c(F)c(F)c5F)c5ccc2[nH]5)C=C4)C=C3)c(F)c1F)C(=O)N[C@@H](CS)C(=O)NCC(N)=O [H-Ala-Cys-Cys-Gly-NH2]
ring closure, conversion by HPLC ([1]; 21-membered ring): 0%

C[C@H](N)C(=O)N[C@@H](CSc1c(F)c(F)c(-c2c3nc(c(-c4c(F)c(F)c(F)c(F)c4F)c4ccc([nH]4)c(-c4c(F)c(F)c(F)c(F)c4F)c4nc(c(-c5c(F)c(F)c(F)c(F)c5F)c5ccc2[nH]5)C=C4)C=C3)c(F)c1F)C(=O)N[C@@H](CCC(N)=O)C(=O)N[C@@H](Cc1c[nH]cn1)C(=O)N[C@@H](CCC(N)=O)C(=O)N[C@@H](CS)C(=O)NCC(N)=O [H-Ala-Cys-Gln-His-Gln-Cys-Gly-NH2]
ring closure, conversion by HPLC ([1]; 30-membered ring): 65% | ring closure, isolated yield ([1]; 30-membered ring): 39%

C[C@H](N)C(=O)N[C@@H](CSc1c(F)c(F)c(-c2c3nc(c(-c4c(F)c(F)c(F)c(F)c4F)c4ccc([nH]4)c(-c4c(F)c(F)c(F)c(F)c4F)c4nc(c(-c5c(F)c(F)c(F)c(F)c5F)c5ccc2[nH]5)C=C4)C=C3)c(F)c1F)C(=O)N[C@@H](Cc1c[nH]cn1)C(=O)N[C@@H](CS)C(=O)NCC(N)=O [H-Ala-Cys-His-Cys-Gly-NH2]
ring closure, conversion by HPLC ([1]; 24-membered ring): 43%

C[C@H](N)C(=O)N[C@@H](CSc1c(F)c(F)c(-c2c3nc(c(-c4c(F)c(F)c(F)c(F)c4F)c4ccc([nH]4)c(-c4c(F)c(F)c(F)c(F)c4F)c4nc(c(-c5c(F)c(F)c(F)c(F)c5F)c5ccc2[nH]5)C=C4)C=C3)c(F)c1F)C(=O)N[C@@H](Cc1c[nH]cn1)C(=O)N[C@@H](CCC(N)=O)C(=O)N[C@@H](CS)C(=O)NCC(N)=O [H-Ala-Cys-His-Gln-Cys-Gly-NH2]
ring closure, conversion by HPLC ([1]; 27-membered ring): 65%

C[C@H](N)C(=O)N[C@@H](CSc1c(F)c(F)c(-c2c3nc(c(-c4c(F)c(F)c(F)c(F)c4F)c4ccc([nH]4)c(-c4c(F)c(F)c(F)c(F)c4F)c4nc(c(-c5c(F)c(F)c(F)c(F)c5F)c5ccc2[nH]5)C=C4)C=C3)c(F)c1F)C(=O)N[C@@H](CO)C(=O)N[C@H](C(=O)N[C@@H](CCC(N)=O)C(=O)N[C@@H](Cc1c[nH]cn1)C(=O)N[C@@H](CCC(N)=O)C(=O)N[C@@H](CS)C(=O)NCC(N)=O)[C@@H](C)O [H-Ala-Cys-Ser-Thr-Gln-His-Gln-Cys-Gly-NH2]
ring closure, conversion by HPLC ([1]; 36-membered ring): 56% | ring closure, isolated yield ([1]; 36-membered ring): 24%

C[C@H](N)C(=O)N[C@@H](CSc1c(F)c(F)c(-c2c3nc(c(-c4c(F)c(F)c(F)c(F)c4F)c4ccc([nH]4)c(-c4c(F)c(F)c(F)c(F)c4F)c4nc(c(-c5c(F)c(F)c(F)c(F)c5F)c5ccc2[nH]5)C=C4)C=C3)c(F)c1F)C(=O)N[C@H](C(=O)N[C@@H](CCC(N)=O)C(=O)N[C@@H](Cc1c[nH]cn1)C(=O)N[C@@H](CCC(N)=O)C(=O)N[C@@H](CS)C(=O)NCC(N)=O)[C@@H](C)O [H-Ala-Cys-Thr-Gln-His-Gln-Cys-Gly-NH2]
ring closure, conversion by HPLC ([1]; 33-membered ring): 65% | ring closure, isolated yield ([1]; 33-membered ring): 25%

C[C@H](N)C(=O)N[C@@H](CSc1c(F)c(F)c(-c2c3nc(c(-c4c(F)c(F)c(F)c(F)c4F)c4ccc([nH]4)c(-c4c(F)c(F)c(F)c(F)c4F)c4nc(c(-c5c(F)c(F)c(F)c(F)c5F)c5ccc2[nH]5)C=C4)C=C3)c(F)c1F)C(=O)N[C@H](C(=O)NCC(=O)N[C@@H](CO)C(=O)N[C@H](C(=O)N[C@@H](CCC(N)=O)C(=O)N[C@@H](Cc1c[nH]cn1)C(=O)N[C@@H](CCC(N)=O)C(=O)N[C@@H](CS)C(=O)NCC(N)=O)[C@@H](C)O)[C@@H](C)O [H-Ala-Cys-Thr-Gly-Ser-Thr-Gln-His-Gln-Cys-Gly-NH2]
ring closure, conversion by HPLC ([1]; 42-membered ring): 46% | ring closure, isolated yield ([1]; 42-membered ring): 18%

C[C@H](N)C(=O)N[C@@H](CSc1c(F)c(F)c(-c2c3nc(c(-c4c(F)c(F)c(F)c(F)c4F)c4ccc([nH]4)c(-c4c(F)c(F)c(F)c(F)c4F)c4nc(c(-c5c(F)c(F)c(F)c(F)c5F)c5ccc2[nH]5)C=C4)C=C3)c(F)c1F)C(=O)N[C@H](C(=O)N[C@@H](Cc1c[nH]cn1)C(=O)NCC(=O)N[C@@H](CCC(N)=O)C(=O)N[C@H](C(=O)N[C@@H](CCC(N)=O)C(=O)N[C@@H](CO)C(=O)N[C@@H](CS)C(=O)NCC(N)=O)[C@@H](C)O)[C@@H](C)O [H-Ala-Cys-Thr-His-Gly-Gln-Thr-Gln-Ser-Cys-Gly-NH2]
ring closure, conversion by HPLC ([1]; 42-membered ring): 47% | ring closure, isolated yield ([1]; 42-membered ring): 10%

C[C@H](N)C(=O)N[C@@H](CSc1c(F)c(F)c(-c2c3nc(c(-c4c(F)c(F)c(F)c(F)c4F)c4ccc([nH]4)c(-c4c(F)c(F)c(F)c(F)c4F)c4nc(c(-c5c(F)c(F)c(F)c(F)c5F)c5ccc2[nH]5)C=C4)C=C3)c(F)c1F)C(=O)N[C@H](C(=O)N[C@@H](CO)C(=O)N[C@H](C(=O)N[C@@H](CCC(N)=O)C(=O)N[C@@H](Cc1c[nH]cn1)C(=O)N[C@@H](CCC(N)=O)C(=O)N[C@@H](CS)C(=O)NCC(N)=O)[C@@H](C)O)[C@@H](C)O [H-Ala-Cys-Thr-Ser-Thr-Gln-His-Gln-Cys-Gly-NH2]
ring closure, conversion by HPLC ([1]; 39-membered ring): 50%

CC[C@H](C)[C@H](NC(=O)[C@H](Cc1ccc(O)cc1)NC(=O)CNC(=O)[C@@H](NC(=O)[C@@H](NC(=O)[C@H](CSc1c(F)c(F)c(-c2c3nc(c(-c4c(F)c(F)c(F)c(F)c4F)c4ccc([nH]4)c(-c4c(F)c(F)c(F)c(F)c4F)c4nc(c(-c5c(F)c(F)c(F)c(F)c5F)c5ccc2[nH]5)C=C4)C=C3)c(F)c1F)NC(=O)[C@@H](N)CC(N)=O)C(C)C)C(C)C)C(=O)NCC(=O)N[C@@H](CCC(=O)O)C(=O)N[C@@H](CCCNC(=N)N)C(=O)N[C@@H](CS)C(=O)N[C@@H](CCC(N)=O)C(N)=O [H-Asn-Cys-Val-Val-Gly-Tyr-Ile-Gly-Glu-Arg-Cys-Gln-NH2]
ring closure, conversion by HPLC ([1]; 45-membered ring): 36%

CC(C)C[C@H](NC(=O)[C@H](C)NC(=O)[C@@H](NC(=O)[C@H](CCC(=O)O)NC(=O)[C@@H]1CCCN1C(=O)[C@H](C)NC(=O)[C@H](CCCCN)NC(=O)[C@@H](N)CSc1c(F)c(F)c(-c2c3nc(c(-c4c(F)c(F)c(F)c(F)c4F)c4ccc([nH]4)c(-c4c(F)c(F)c(F)c(F)c4F)c4nc(c(-c5c(F)c(F)c(F)c(F)c5F)c5ccc2[nH]5)C=C4)C=C3)c(F)c1F)[C@@H](C)O)C(=O)N[C@@H](CS)C(N)=O [H-Cys-Lys-Ala-Pro-Glu-Thr-Ala-Leu-Cys-NH2]
ring closure, conversion by HPLC [2]: 44%
